Values quoted from earlier work, collected in article PMC7774954, “Interactomic affinity profiling by holdup assay: Acetylation and distal residues impact the PDZome-binding specificity of PTEN phosphatase” (PLoS ONE, 2020).
Where no end group is shown, it is not given here. The star is where a group is joined. Biotin = O=C1N[C@H]2[C@H](CS[C@H]2CCCCC(=O)*)N1; TTDS = NCCCOCCOCCOCCCNC(=O)CCC(=O)*

Columns and labels:
[1] = tested on: PTPN13-4 domain; conditions: cited from earlier work
From the text: It has been shown that the binding of the tumor suppressor PTEN, through its PBM, to PDZ dom ...

[2] = target: MAST2 PDZ 1; conditions: ITC, read-out: KD (affinity provided in the literature); cited from earlier work
From the text: (§1) Table 1 PDZ domains interactors for PTEN according to literature and the present study. | column: KD ^d

[3] = target: SNX27 PDZ 1; conditions: ITC, read-out: KD (affinity provided in the literature); cited from earlier work
From the text: as §1

[4] = target: PARD3 PDZ 3; conditions: FP, read-out: KD (affinity provided in the literature); cited from earlier work
From the text: as §1

**Q.** With “PTEN: PTEN constructs of published studies; phosphatase and tensin homolog deleted on chromosome 10 ({Biotin-TTDS}-DEDQHTQITKV)” as the substance, how does the “interaction with PTPN13-4 (in words)” value [1] read?
**A.** absence of interaction

**Q.** And the Kd [2]?
**A.** 2 µM

**Q.** And the Kd [3]?
**A.** 38 µM

**Q.** And the Kd [4]?
**A.** 19 µM
